What all share (format): cell-based
Experiment [1] deals with Staphylococcus aureus ATCC 6538. Put plainly: Suspension test, bactericidal activity (modified EN 1040). Conditions: room temperature, start about 10^7 cfu/ml. The protocol:
(§1) The following examples illustrate the invention. Unless indicated otherwise, percentages refer to percent by weight (b.w.), room temperature denotes a temperature from the range 20-24° C. The determination of bactericidal activity and fungicidal activity in surfactants or shampoo formulations of the present invention is measured in a suspension test according to trivial modifications of the European Standard methods EN 1040 and EN 1275, respectively. The bactericidal activity of the compounds of the present invention is measured in a suspension test (trivial modification of the European Standard method EN 1040). Substances listed in Table 1 are tested against gram positive and gram negative bacteria. The compound of the invention is dissolved in ethanol resulting in a 1% b.w. stock solution. The cell densities of the bacterial suspensions used as inoculums for the suspension test are as follows (cfu=colony forming units): [table] For the suspension tests, an appropriate concentration of the test compound is mixed with a bacterial suspension resulting in a final cell count in the mixture of about 10^7 cfu/ml. These test mixtures are incubated at room temperature (22° C.+/−2° C.) and aliquots of 1 ml test mixture containing the test bacteria are taken after set contact times for determination of the residual cell count of test bacteria. For inactivation of the antimicrobial compounds, the 1 ml aliquots are diluted in 1:10 steps with an aqueous solution containing 10% of Tween 80 (a polyethoxylated sorbitan ester surfactant), 3% lecithin, 0.1% histidine and 0.5% sodium thiosulfate.

Experiment [2] has as its system Aspergillus niger ATCC 6275. Put plainly: Suspension test of compound in surfactants and shampoo. Conditions: 7 days, start 10^5 cfu/ml. The protocol: (§2) The following examples illustrate the invention. Unless indicated otherwise, percentages refer to percent by weight (b.w.), room temperature denotes a temperature from the range 20-24° C. The determination of bactericidal activity and fungicidal activity in surfactants or shampoo formulations of the present invention is measured in a suspension test according to trivial modifications of the European Standard methods EN 1040 and EN 1275, respectively. The fungicidal activity of the compounds of the present invention is measured in a suspension test (trivial modification of the European Standard method EN 1275). The compound of the invention is incorporated in an anionic surfactant, for example sodium laureth sulphate (Epicol ESB 70), or a non-ionic surfactant such as decyl glucoside (Plantacare 2000UP), or an amphoteric surfactant, for example cocamidopropyl betaine (Tego Betain F50). Each of the surfactants is tested at 10% a.i. Furthermore, the 5-amino-salicylic acid derivatives of the invention are incorporated in a typical shampoo formulation with the following composition: • 0.01 to 5% by weight of 5 amino-salicylic acid derivative, • 7.0% by weight sodium laureth-2-sulfate, • 2.5% by weight decyl glucoside • 4.0% by weight cocamidopropyl betaine, • 1.0% by weight NaCl and • water ad 100%. • pH 6 is adjusted with NaOH. The surfactant solutions and shampoo formulations tested contain 1% b.w. of the compound of the invention. The cell densities of the bacterial suspensions used as inoculums for the suspension tests are as follows (cfu=colony forming units): [table] The cell density in the test is adjusted to 10^5 cfu/ml. These test mixtures are incubated at room temperature (22° C.+/−2° C.) and aliquots of 1 ml test mixture are taken after set contact times for determination of the residual cell count. For inactivation of the antimicrobial compounds, the 1 ml aliquots are diluted in 1:10 steps with an aqueous solution containing 10% Tween 80 (a polyethoxylated sorbitan ester surfactant), 3% lecithin, 0.1% histidine and 0.5% sodium thiosulfate.

For experiment [3], the system named is Candida albicans AJCC 10231. Described as above. Conditions: 24 h, start 10^5 cfu/ml. The protocol: as §2
The subject of experiment [4] is Escherichia coli ATCC 10536. The description is as above. Conditions: 24 h, start 10^5 cfu/ml. The procedure:
as §2, with “respectively.” for “respectively. The fungicidal activity of the compounds of the present invention is measured in a suspension test (trivial modification of the European Standard method EN 1275).”

The test system of experiment [5] is Staphylococcus aureus ATCC 6538. The experiment is described as above. Conditions: 24 h, start 10^5 cfu/ml. The procedure: as §2, with “respectively.” for “respectively. The fungicidal activity of the compounds of the present invention is measured in a suspension test (trivial modification of the European Standard method EN 1275).”
The test system of experiment [6] is Pseudomonas aeruginosa ATCC 15442. The experiment is described as above. Conditions: 24 h, start 10^5 cfu/ml. The protocol:
as §2, with “respectively.” for “respectively. The fungicidal activity of the compounds of the present invention is measured in a suspension test (trivial modification of the European Standard method EN 1275).”

Experiment [7] deals with Pseudomonas aeruginosa ATCC15442. Put plainly: Suspension test, bactericidal activity (modified EN 1040). Conditions: room temperature, start about 10^7 cfu/ml. The protocol:
as §1

Experiment [8] relates to Escherichia coli ATCC 10536. Described as above. Conditions: room temperature, start about 10^7 cfu/ml. The protocol:
as §1

In experiment [9] the test system is Candida albicans ATCC 10231. Put plainly: Suspension test, fungicidal activity (modified EN 1275), Table A. Conditions: contact time 24 h. The protocol:
The following examples illustrate the invention. Unless indicated otherwise, percentages refer to percent by weight (b.w.), room temperature denotes a temperature from the range 20-24° C. The determination of bactericidal activity and fungicidal activity in surfactants or shampoo formulations of the present invention is measured in a suspension test according to trivial modifications of the European Standard methods EN 1040 and EN 1275, respectively. For the suspension tests, an appropriate concentration of the test compound is mixed with a bacterial suspension resulting in a final cell count in the mixture of about 10^7 cfu/ml. These test mixtures are incubated at room temperature (22° C.+/−2° C.) and aliquots of 1 ml test mixture containing the test bacteria are taken after set contact times for determination of the residual cell count of test bacteria. For inactivation of the antimicrobial compounds, the 1 ml aliquots are diluted in 1:10 steps with an aqueous solution containing 10% of Tween 80 (a polyethoxylated sorbitan ester surfactant), 3% lecithin, 0.1% histidine and 0.5% sodium thiosulfate. The fungicidal activity of the compounds of the present invention is measured in a suspension test (trivial modification of the European Standard method EN 1275). The compound of the invention is dissolved in ethanol resulting in a 1% b.w. solution of the compound. […]

Where [10] appears, read: 1% b.w. compound in amphoteric surfactant (cocamidopropyl betaine, 10% a.i.).
The mark [11] stands for this setting: 1% b.w. compound in anionic surfactant (sodium laureth sulfate, 10% a.i.).
Setting [12] is: 1% b.w. compound in non-ionic surfactant (decyl glucoside, 10% a.i.).
Setting [13] is: 1% b.w. compound in shampoo formulation, pH 6.

`CCCCCCCCCCCC(=O)Nc1ccc(O)c(C(=O)O)c1` [compound 597]: in [1] (contact time 24 h), the log reduction is more than 5 log and the residual cell count is recorded as 1.6 × 10^3 cfu/ml.

Consider `CCCCCC(=O)Nc1ccc(O)c(C(=O)O)c1` [compound 596, 5-hexanoylamino-salicylic acid], for which the log reduction in experiment [2] (setting [10]) is listed as 2.3 log; in [2] (setting [11]), 2.1 log; in experiment [2] (setting [12]) it was 1.1 log; in [3] (setting [10]), more than 3 log; in [3] (setting [11]), 1.2 log; in experiment [3] (setting [12]), more than 3 log. Also, the log reduction in experiment [4] (setting [10]), in [4] (setting [11]), in [4] (setting [12]), in experiment [4] (setting [13]), in experiment [5] (setting [10]) and in experiment [5] (setting [11]) was more than 3 log in each case. Moreover, the log reduction in [5] (setting [12]) was more than 3 log; in experiment [5] (setting [13]), more than 3 log; in experiment [6] (setting [10]), more than 3 log; in [6] (setting [11]), more than 3 log; in experiment [6] (setting [12]), more than 3 log; in experiment [7] (contact time 30 min) it was more than 5 log. Also, the log reduction was more than 5 log in experiment [8] (contact time 30 min), more than 5 log in experiment [1] (contact time 30 min) and more than 4 log in experiment [9]. Further, the residual cell count is given as 1.2 × 10^3 cfu/ml in experiment [2] (setting [10]); 1.7 × 10^3 cfu/ml in experiment [2] (setting [11]); 1.9 × 10^4 cfu/ml in experiment [2] (setting [12]); less than 100 cfu/ml in [3] (setting [10]); 1.4 × 10^4 cfu/ml in experiment [3] (setting [11]); less than 100 cfu/ml in experiment [3] (setting [12]). Besides, the residual cell count in experiment [4] (setting [10]), in [4] (setting [11]), in experiment [4] (setting [12]), in experiment [4] (setting [13]), in experiment [5] (setting [10]) and in experiment [5] (setting [11]) was less than 100 cfu/ml each time. Further, the residual cell count in [5] (setting [12]), in [5] (setting [13]), in experiment [6] (setting [10]), in experiment [6] (setting [11]), in [6] (setting [12]) and in experiment [7] (contact time 30 min) was less than 100 cfu/ml throughout. Also, the residual cell count in experiment [8] (contact time 30 min), in [1] (contact time 30 min) and in experiment [9] was less than 100 cfu/ml in each case.

With `O=C(O)c1cc(NC(=O)C2CCCCC2)ccc1O` [compound 601, 5-cyclohexanoylamino-salicylic acid], the log reduction in [7] (contact time 24 h) is listed as 4.8 log; in experiment [8] (contact time 24 h), 4.3 log; in [1] (contact time 24 h) it was more than 5 log. The residual cell count in [7] (contact time 24 h) was 6.1 × 10^2 cfu/ml; in experiment [8] (contact time 24 h), 9.1 × 10^2 cfu/ml; in [1] (contact time 24 h), less than 100 cfu/ml.

Source of the values: patent US9644175B2, “Antimicrobial amino-salicylic acid derivatives” (BASF SE, priority 2009, dated 2017).
